The values below come from patent publication US9233136B2, “4-amino-4-oxobutanoyl peptides as inhibitors of viral replication” (Achillion Pharmaceuticals, Inc., priority 2006, dated 2016).

The test system of the test is Hepatitis C replicon in Huh-7 cells. Kind of test: HCV replicon replication assay (NPT ELISA). Format: cell-based. Particulars: Hepatitis C virus, Huh-7, 72 h. How it is done: Compounds claimed herein are tested for the ability to inhibit viral replication of the Hepatitis C replicon in cultured cells in which the HCV replicon construct has been incorporated. The HCV replicon system was described by Bartenschlager, et. al (Science, 285, pp. 110-113 (1999)). The replicon system is predictive of in vivo anti-HCV activity; compounds that are active in humans uniformly evidence activity in the replicon assay.
In this assay HCV replicon containing cells are treated with different concentrations of the test compound to ascertain the ability of the test compound to suppress replication of the HCV replicon. As a positive control, HCV replicon-containing cells are treated with different concentrations of interferon alpha, a known inhibitor of HCV replication. The replicon assay system includes Neomycin Phosphotransferase (NPT) as a component of the replicon itself in order to detect the transcription of replicon gene products in the host cell. Cells in which the HCV replicon is actively replicating have high levels of NPT; the level of NPT is proportional to HCV replication. […] The NPT level of each sample is measured using a captured ELISA.
A protocol for testing compounds for the ability to inhibit viral replication of the Hepatitis C replicon cultured cells in which the replicon construct has been incorporated, follows.
The HCV replicon contains, 5′-3′, the HCV-IRES, the neomycin phosphotransferase (neo) gene, the IRES of encephalomyocarditis virus, which directs translation of HCV sequences NS3 to NS5B, and the 3′-NTR. The sequence of the HCV replicon has been deposited in GenBank (Accession no. AJ242652).
The replicon is transfected into Huh-7 cells using standard methods such as electroporation.
The cells are then seeded onto 96-well plates at a density of 6000-7500 cells/100 microliters/well (6-7.5×10^5 cells/10 ml/plate). The plates are then incubated at 37° C. in a 5% CO2 incubator.
HCV replicon-containing cells are rinsed with once PBS once; 2 mls of trypsin are then added. Cells are incubated at 37° C. in a 5% CO2 incubator for 3-5 minutes. 10 mls of complete medium is added to stop the reaction. Cells are blown gently, put into a 15 ml tube, and spun at 1200 rpm for four minutes. The trypsin/medium solution is removed and 5 mls of medium (500 ml DMEM (high glucose)) from BRL catalog #12430-054; 50 mls 10% FBS, 5% Geneticin G418 (50 mg/ml, BRL catalog #10131-035), 5 ml MEM non-essential amino acids (100×BRL #11140-050) and 5 ml pen-strep (BRL #15140-148) is added. The cells and media are mixed carefully
Cells are plated with screening medium (500 ml DMEM (BRL #21063-029), 50 ml FBS (BRL #10082-147) and 5 ml MEM non-essential amino acid (BRL #11140-050) at 6000-7500 fcells/100 μl/well of 96 well plate (6-7.5×10^5 cells/10 ml/plate). Plates are placed into 37° C. 5% CO2 incubator overnight.
The following morning, drugs (test compounds or interferon alpha) are diluted in 96 well U bottom plates with media or DMSO/media, depending on the final concentration chosen for screening. Generally for 6 concentrations of each test compounds ranging from 10 micromolar to 0.03 micromolar are applied. 100 μl of the test compound dilution is placed in wells of the 96 well plate containing the HCV replicon cells. Media without drug is added to some wells as a negative controls. DMSO is known to affect cell growth. Therefore, if drugs diluted in DMSO are used, all wells, including negative control (media only) and positive control (interferon alpha) wells, must contain the same concentration of DMSO, for single dose screening. The plates are incubated at 37° C. in a humidified 5% CO2 environment for three days.
On day four, the NTPII assay is quantitated. The medium is poured from the plates and the plates are washed once in 200 μl of PBS. The PBS is then decanted and the plates tapped in a paper towel to remove any remaining PBS. […]
A general note: A replicon is a self-replicating genome or part of one, used to study replication in cells.

Bounds are passed on as bounds.

On to `COc1ccc2c(O[C@@H]3C[C@H]4C(=O)N[C@@]5(C(=O)NS(=O)(=O)C6CC6)C[C@@H]5/C=C\CCCCC[C@H](CC(=O)N5CCCCC5)C(=O)N4C3)cc(-c3ccccc3)nc2c1` [Compound 59, (2R,6R,13aR,14aS,16aS,Z)-N-(cyclopropylsulfonyl)-2-(7-methoxy-2-phenylquinolin-4-yloxy)-5,16-dioxo-6-(2-oxo-2-(piperidin-1-yl)ethyl)-1,2,3,5,6,7,8,9,10,11,13a,14,14a,15,16,16a-hexadecahydrocyclopropa[e]pyrrolo[1,2-a] [1,4]diazacyclopentadecine-14a-carboxamide], for which the EC50 (commonly the concentration that produces a half-maximal response) was under 0.1 µM.

`C=CC1CC1(NC(=O)[C@@H]1C[C@@H](Oc2cc(-c3ccccc3)nc3cc(OC)ccc23)CN1C(=O)[C@@H](CC(=O)N1CCN(C)CC1)C(C)(C)C)C(=O)O` (stereo partly drawn) [Compound 43, 1-((2S,4R)-1-((S)-2-tert-butyl-4-(4-methylpiperazin-1-yl)-4-oxobutanoyl)-4-(7-methoxy-2-phenylquinolin-4-yloxy)pyrrolidine-2-carboxamido)-2-vinylcyclopropanecarboxylic acid] returned an EC50 of over 10 µM.

Compound `C=C[C@@H]1C[C@]1(NC(=O)[C@@H]1C[C@@H](Oc2cc(-c3ccccc3)nc3cc(OC)ccc23)CN1C(=O)[C@@H](CC(=O)N1CCCCC1)C(C)(C)C)C(=O)NS(=O)(=O)C1CC1` [Compound 60, (2S,4R)-1-((S)-2-tert-butyl-4-oxo-4-(piperidin-1-yl)butanoyl)-N-((1R,2S)-1-(cyclopropylsulfonylcarbamoyl)-2-vinylcyclopropyl)-4-(7-methoxy-2-phenylquinolin-4-yloxy)pyrrolidine-2-carboxamide] returned an EC50 of under 0.1 µM.

`C=CC1CC1(NC(=O)[C@@H]1C[C@@H](Oc2cc(-c3ccccc3)nc3cc(OC)ccc23)CN1C(=O)[C@@H](CC(=O)N1CCc2ccccc2C1)C(C)(C)C)C(=O)O` (stereo partly drawn) [Compound 57, 1-((2S,4R)-1-((S)-2-tert-butyl-4-(3,4-dihydroisoquinolin-2(1H)-yl)-4-oxobutanoyl)-4-(7-methoxy-2-phenylquinolin-4-yloxy)pyrrolidine-2-carboxamido)-2-vinylcyclopropanecarboxylic acid] came in with a concentration for a half-maximal effect (EC50) of over 10 µM.

`C=CC1CC1(NC(=O)[C@@H]1C[C@@H](Oc2cc(-c3ccccc3)nc3cc(OC)ccc23)CN1C(=O)[C@@H](CC(=O)N1CCCCC1)C(C)(C)C)C(=O)NS(=O)(=O)C1CC1` (stereo partly drawn) [Compound 49, (2S,4R)-1-((S)-2-tert-butyl-4-oxo-4-(piperidin-1-yl)butanoyl)-N-(1-(cyclopropylsulfonylcarbamoyl)-2-vinylcyclopropyl)-4-(7-methoxy-2-phenylquinolin-4-yloxy)pyrrolidine-2-carboxamide]: the 50% effective concentration (EC50) is under 0.1 µM.

`C=CC1CC1(NC(=O)[C@@H]1C[C@@H](Oc2cc(-c3ccccc3)nc3cc(OC)ccc23)CN1C(=O)[C@@H](CC(=O)N1CCCCC1)C(C)(C)C)C(=O)O` (stereo partly drawn) [Compound 41, 1-((2S,4R)-1-((S)-2-tert-butyl-4-oxo-4-(piperidin-1-yl)butanoyl)-4-(7-methoxy-2-phenylquinolin-4-yloxy)pyrrolidine-2-carboxamido)-2-vinylcyclopropanecarboxylic acid] yielded an EC50 of 1 to 10 µM.

As for `C=CC1CC1(NC(=O)[C@@H]1C[C@@H](Oc2cc(-c3ccccc3)nc3cc(OC)ccc23)CN1C(=O)[C@@H](CC(=O)N1CCCCC1)C(C)(C)C)C(=O)OCC` (stereo partly drawn) [Compound 40, ethyl 1-((2S,4R)-1-((S)-2-tert-butyl-4-oxo-4-(piperidin-1-yl)butanoyl)-4-(7-methoxy-2-phenylquinolin-4-yloxy)pyrrolidine-2-carboxamido)-2-vinylcyclopropanecarboxylate], the EC50 was over 10 µM.

Compound `C=CC1CC1(NC(=O)[C@@H]1C[C@@H](Oc2cc(-c3ccccc3)nc3cc(OC)ccc23)CN1C(=O)[C@@H](CC(=O)N1CCc2ccccc2C1)C(C)(C)C)C(=O)OCC` (stereo partly drawn) [Compound 51, ethyl 1-((2S,4R)-1-((S)-2-tert-butyl-4-(3,4-dihydroisoquinolin-2(1H)-yl)-4-oxobutanoyl)-4-(7-methoxy-2-phenylquinolin-4-yloxy)pyrrolidine-2-carboxamido)-2-vinylcyclopropanecarboxylate] had an EC50 of over 10 µM.

Turning to `C=CC1CC1(NC(=O)[C@@H]1C[C@@H](Oc2cc(-c3ccccc3)nc3cc(OC)ccc23)CN1C(=O)[C@@H](CC(=O)N1CCCc2ccccc21)C(C)(C)C)C(=O)O` (stereo partly drawn) [Compound 56, 1-((2S,4R)-1-((S)-2-tert-butyl-4-(3,4-dihydroquinolin-1(2H)-yl)-4-oxobutanoyl)-4-(7-methoxy-2-phenylquinolin-4-yloxy)pyrrolidine-2-carboxamido)-2-vinylcyclopropanecarboxylic acid], the EC50 was in the range of 1 to 10 µM.

Compound `C=CC1CC1(NC(=O)[C@@H]1C[C@@H](Oc2cc(-c3ccccc3)nc3cc(OC)ccc23)CN1C(=O)[C@@H](CC(=O)N1CCCC1)C(C)(C)C)C(=O)O` (stereo partly drawn) [Compound 38, 1-((2S,4R)-1-((S)-2-tert-butyl-4-oxo-4-(pyrrolidin-1-yl)butanoyl)-4-(7-methoxy-2-phenylquinolin-4-yloxy)pyrrolidine-2-carboxamido)-2-vinylcyclopropanecarboxylic acid] returned a concentration for a half-maximal effect (EC50) of over 10 µM.

Compound `C=CC1CC1(NC(=O)[C@@H]1C[C@@H](Oc2cc(-c3ccccc3)nc3cc(OC)ccc23)CN1C(=O)[C@@H](CC(=O)N1CCCCC1C(N)=O)C(C)(C)C)C(=O)O` (stereo partly drawn) [Compound 44, 1-((2S,4R)-1-((2S)-2-tert-butyl-4-(2-carbamoylpiperidin-1-yl)-4-oxobutanoyl)-4-(7-methoxy-2-phenylquinolin-4-yloxy)pyrrolidine-2-carboxamido)-2-vinylcyclopropanecarboxylic acid] gave a half-maximal effective concentration (EC50) of over 10 µM.

In the case of `C=CC1CC1(NC(=O)[C@@H]1C[C@@H](Oc2cc(-c3ccccc3)nc3cc(OC)ccc23)CN1C(=O)[C@@H](CC(=O)N1CCCC1)C(C)(C)C)C(=O)OCC` (stereo partly drawn) [Compound 39, ethyl 1-((2S,4R)-1-((S)-2-tert-butyl-4-oxo-4-(pyrrolidin-1-yl)butanoyl)-4-(7-methoxy-2-phenylquinolin-4-yloxy)pyrrolidine-2-carboxamido)-2-vinylcyclopropanecarboxylate], the EC50 was over 10 µM.

On to `C=CC1CC1(NC(=O)[C@@H]1C[C@@H](Oc2cc(-c3ccccc3)nc3cc(OC)ccc23)CN1C(=O)[C@@H](CC(=O)N1CCC(O)C1)C(C)(C)C)C(=O)O` (stereo partly drawn) [Compound 42, 1-((2S,4R)-1-((2S)-2-tert-butyl-4-(3-hydroxypyrrolidin-1-yl)-4-oxobutanoyl)-4-(7-methoxy-2-phenylquinolin-4-yloxy)pyrrolidine-2-carboxamido)-2-vinylcyclopropanecarboxylic acid], for which the concentration giving a half-maximal response (EC50) is over 10 µM.

In the case of `COc1ccc2c(O[C@@H]3C[C@H]4C(=O)N[C@]5(C(=O)NS(=O)(=O)C6CC6)C[C@H]5/C=C\CCCCC[C@H](CC(=O)N5CCCCC5)C(=O)N4C3)cc(-c3ccccc3)nc2c1` [Compound 58, (2R,6R,13aS,14aR,16aS,Z)-N-(cyclopropylsulfonyl)-2-(7-methoxy-2-phenylquinolin-4-yloxy)-5,16-dioxo-6-(2-oxo-2-(piperidin-1-yl)ethyl)-1,2,3,5,6,7,8,9,10,11,13a,14,14a,15,16,16a-hexadecahydrocyclopropa[e]pyrrolo[1,2-a] [1,4]diazacyclopentadecine-14a-carboxamide], the EC50 was under 0.1 µM.
